Assay results taken from patent US7977041B2, “Methods and kits for testing the efficacy of therapeutic compounds and other therapies in a three-dimensional matrix with respect to tumorous cells and tissue” (priority 2006, dated 2011).

Test system: renal cell carcinoma tissue, Patient Sample GS-640 (kidney tissue)
Test: tumor tissue fragments in three-dimensional gel matrix: cell migration/invasion away from the fragment under chemotherapy
Type: cell-based, human
Conditions: 5 days treatment; for number of invading cells: compared with control sample at Day 5; for response of tumor sample to the drug (behavior of cells growing and invading away from the solid tumor fragment): patient renal cell carcinoma fragments in gel matrix, 37 degree Celsius, 5% CO2, compared with untreated control
Description: FIGS. 1-8 are photographic and photomicrographic images which show, by way of example, use of the means and methods of the present invention with respect to a tissue sample removed from a patient. With respect to FIGS. 1-8, Patient Sample GS-640, comprising kidney tissue, was removed from the patient by a surgeon during surgery.
Tissue analysis and screening in accordance with the invention were requested by the surgeon, and proper consent was obtained from the patient prior to surgical removal of a sample quantity of tissue from the RHS Kidney. The patient was diagnosed with renal cell carcinoma. A tissue sample of approximately 1 gram in quantity was removed from the patient during surgery, and was placed into a 25 ml sample jar, and immersed in sterile saline. The tumor tissue was kept at 4 degrees centigrade until processed for the screening of therapeutic compounds in accordance with the means and methods of the invention. All procedures were performed under sterile conditions in a bio-safety laminar flow hood.
FIG. 1 is a photographic image showing the mechanical division of the sample into portions to be tested. The sample has been prepared by dissecting away any non viable tissue and blood prior to mincing into 1-2 mm pieces using sterile disposable scalpels.
FIG. 2 is a photographic image showing tumor sample portions which have been placed into each well of a 48 well plate, and been submersed in a gel matrix mixture according to the invention. After insertion of the portions, the mixture was allowed to form into a gel at room temperature for approximately 30 minutes. Once the gel formed around the fully immersed tumor fragments, nutrient rich media was added as a liquid overlay that permeated the entire gel and tumor fragment.
Each different chemotherapy and or dose of chemotherapy was added to a set of 6 wells out of the 48-well plate. A total of 7 different chemotherapies were assessed in this plate. One set of six wells were not treated with drug and thus acted as ‘control conditions’ for tumor fragment growth and invasion. Each of the eight vertical lanes containing six separate wells was marked with a symbol for each chemotherapy/dose used and noted correspondingly on data collection sheets. […] The plates were then placed in a conventional 37 degree Celsius incubator at 5% CO2.
This image is thus representative of all wells at Day 0 with or without chemotherapeutics. Images were made with a 400× magnification phase contrast micrograph using ZEISS camera specs.
FIG. 4 is a photomicrographic image which showing a patient control sample (no treatment) after 3 days incubation @37° C. and 5% CO2. Noteworthy is the migration of cells away from the solid tumor mass in a halo around the tumour fragment.
Noteworthy is the halo of cells and increased cell density as compared with the results shown at Day 3 of the test. The lines on the images have been drawn to show the distance measurements within which approximately 95% of the migrating cells have migrated away from the margins of the tissue sample.

Compound	migratory distance of cells	number of invading cells	response of tumor sample to the drug (behavior of cells growing and invading away from the solid tumor fragment)
CC(=O)O[C@@]12CO[C@@H]1C[C@H](O)[C@@]1(C)C(=O)[C@H](O)C3=C(C)[C@@H](OC(=O)[C@H](O)[C@@H](NC(=O)OC(C)(C)C)c4ccccc4)C[C@@](O)([C@@H](OC(=O)c4ccccc4)[C@H]21)C3(C)C [Docetaxol, Docetaxel]	longer migratory distance than treatment with Taxol	fewer number of invading cells than the control	moderate response
CC(=O)O[C@H]1C(=O)[C@@]2(C)[C@H]([C@H](OC(=O)c3ccccc3)[C@]3(O)C[C@H](OC(=O)[C@H](O)[C@@H](NC(=O)c4ccccc4)c4ccccc4)C(C)=C1C3(C)C)[C@]1(OC(C)=O)CO[C@@H]1C[C@@H]2O [Taxol, Paclitaxel]			a drop in both the distance and the number of cells that have grown and invaded away from the solid tumor fragment
N.N.[Cl][Pt][Cl] [Cisplatin]		identical in appearance and cell numbers to the control sample	failed chemotherapy
